Measured values taken from patent US10351596B2, “γ-AA-peptide STAT3/DNA inhibitors and methods of use” (H. Lee Moffitt Cancer Center and Research Institute, Inc., priority 2014, dated 2019).

Test system: STAT3 phosphorylation and STAT3 regulated genes (survivin, cyclin D1)
Experiment: Western immunoblotting of MDA-MB-468 cells (P-STAT3, survivin, cyclin D1)
Assay type: cell-based, human
Conditions: 100 μM overnight, Western blot
Method: To assess the ability of lead γ-AA peptides to modulate the expression of STAT3 regulated genes, Western immunoblotting was carried out to determine the effect of γ-AA peptides on the expression levels of survivin and cyclin D1. Briefly, Western blots were prepared using cells that were harvested and lysed for 30 min on ice with occasional vortexing in 150 mM Hepes, pH 7.5, 150 mM NaCl, 1 mM EDTA, 0.5% NP-40, 10% glycerol, 5 mM NaF, 1 mM DTT, 1 mM PMSF, 2 mM Na3VO4, and 5 μg/ml leupeptin. Proteins readings were done using the Bradford protein assay, and equal amounts of protein for each sample were loaded into the wells of SDS-PAGE gels. After separation, proteins were transferred to nitrocellulose and Western blots were performed as previously described (Zhang, et al., A Novel Inhibitor of STAT3 Homodimerization Selectively Suppresses STAT3 Activity and Malignant Transformation. Cancer Research 2013, 73, 1922-1933).

S3I-1757
STAT3 phosphorylation (P-STAT3): blocked STAT3 phosphorylation
